Measured values from BindingDB's records for doi:10.1016/j.bmcl.2007.10.088 (University of Minnesota Minneapolis, 2008).

target: Bcl-xL (Homo sapiens); assay: Inhibition of Bak peptide binding to human recombinant Bcl-Xl

Ki [µM] | SMILES
58.4 | CCOC(=O)[C@H](Cc1ccccc1)N1C(=O)/C(=C/c2ccc(OCOc3ccc(/C=C4\SC(=S)N([C@@H](Cc5ccccc5)C(=O)OCC)C4=O)cc3)cc2)SC1=S
0.97 | O=C(O)[C@H](Cc1ccccc1)N1C(=O)/C(=C/c2ccc(OCCOc3ccc(/C=C4\SC(=S)N([C@@H](Cc5ccccc5)C(=O)O)C4=O)cc3)cc2)SC1=S
134 | O=C(OCCOC(=O)[C@H](Cc1ccccc1)N1C(=O)/C(=C/c2ccc(Br)cc2)SC1=S)[C@H](Cc1ccccc1)N1C(=O)/C(=C/c2ccc(Br)cc2)SC1=S
